Data published in patent US20100331577A1, “Method for radio-labeling serotonin transporter ligand, 123I-IADM” (ATOMIC ENERGY COUNCIL-INSTITUTE OF NUCLEAR ENERGY RESEARCH, priority 2008, published 2010).

Key:
[1] = radiochemistry purity over time measured by HPLC (stability); type: physicochemical; details: main peak 63
Experimental: Referring to FIG. 4, an HPLC is used to measure the radiochemistry purity of the ^123I-ADAM 13. Reverse-phase high-performance liquid chromatography equipped with a radiodetector is used for the qualitative and quantitative assessment of the ^123I-ADAM 13. The retention time of the ^123I-ADAM 13 is 18 minutes.
Referring to FIG. 6, the radiochemistry purity of the ^123I-ADAM after 0 hour is shown in a chart. At 61, the radiochemistry purity is 0.67%. At 62, the radiochemistry purity is 1.58%. At 63, the radiochemistry purity is 97.78%.
Referring to FIG. 7, the radiochemistry purity of the ^123I-ADAM after 48 hours is shown in a chart. At 64, the radiochemistry purity is 4.41%. At 65, the radiochemistry purity is 1.55%. At 66 the radiochemistry purity is 94.04%. After 48 hours, the radiochemistry purity is still higher than 90%.

[2] = target: T1, serotonin transporter (Rattus norvegicus, UniProt P31652); experiment: microSPECT and microCT imaging of the brain of a SD rat; type: in vivo
T1 construct: from tissue; host or cells: brain of a SD rat (in vivo imaging)
T1 sequence (P31652 whole entry): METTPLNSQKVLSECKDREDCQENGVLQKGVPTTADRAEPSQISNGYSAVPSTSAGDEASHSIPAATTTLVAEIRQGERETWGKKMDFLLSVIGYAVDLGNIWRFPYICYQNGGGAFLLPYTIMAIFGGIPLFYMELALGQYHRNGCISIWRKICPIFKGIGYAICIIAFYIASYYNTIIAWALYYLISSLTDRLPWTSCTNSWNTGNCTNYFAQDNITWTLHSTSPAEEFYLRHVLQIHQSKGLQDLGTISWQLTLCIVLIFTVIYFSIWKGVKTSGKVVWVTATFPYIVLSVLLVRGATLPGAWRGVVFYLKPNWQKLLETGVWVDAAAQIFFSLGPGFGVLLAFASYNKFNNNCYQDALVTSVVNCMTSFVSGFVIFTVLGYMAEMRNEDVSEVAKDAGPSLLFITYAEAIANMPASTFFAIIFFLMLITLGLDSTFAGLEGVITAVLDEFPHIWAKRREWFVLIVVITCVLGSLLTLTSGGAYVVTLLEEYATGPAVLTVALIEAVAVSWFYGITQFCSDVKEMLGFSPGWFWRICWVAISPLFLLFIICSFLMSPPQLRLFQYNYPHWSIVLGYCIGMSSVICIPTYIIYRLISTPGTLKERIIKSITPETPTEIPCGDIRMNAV
From the text: Referring to FIG. 8, a microCT image 71 and a microSPECT image 72 of the brain of a SD rat are shown. A fused image 73 of the microCT image and the microSPECT image 72 is also shown. […] The concentration of the serotonin transporter in the midbrain is higher than in the cerebellum 73. The ^123I-ADAM 13 can effectively be used to detect the serotonin transporter.

[3] = test system: serotonin transporter; experiment: SPECT and MRI imaging of the brain of an ape; type: in vivo
From the text: Referring to FIG. 9, the ^123I-ADAM is used to provide a SPECT image and a MRI image 82 of an ape. […] The concentration of the serotonin transporter in the hypothalamus is higher than in the cerebellum 83. The ^123I-ADAM 13 can effectively be used to detect the serotonin transporter.

[4] = cited from earlier work
[5] = target: T2, serotonin transporter (Homo sapiens, UniProt P31645); details: cited from earlier work; for clarity of the image obtained: compared with ^125I-IDAM; for specific binding affinity: imaging of the serotonin transporter
T2 sequence (P31645 whole entry): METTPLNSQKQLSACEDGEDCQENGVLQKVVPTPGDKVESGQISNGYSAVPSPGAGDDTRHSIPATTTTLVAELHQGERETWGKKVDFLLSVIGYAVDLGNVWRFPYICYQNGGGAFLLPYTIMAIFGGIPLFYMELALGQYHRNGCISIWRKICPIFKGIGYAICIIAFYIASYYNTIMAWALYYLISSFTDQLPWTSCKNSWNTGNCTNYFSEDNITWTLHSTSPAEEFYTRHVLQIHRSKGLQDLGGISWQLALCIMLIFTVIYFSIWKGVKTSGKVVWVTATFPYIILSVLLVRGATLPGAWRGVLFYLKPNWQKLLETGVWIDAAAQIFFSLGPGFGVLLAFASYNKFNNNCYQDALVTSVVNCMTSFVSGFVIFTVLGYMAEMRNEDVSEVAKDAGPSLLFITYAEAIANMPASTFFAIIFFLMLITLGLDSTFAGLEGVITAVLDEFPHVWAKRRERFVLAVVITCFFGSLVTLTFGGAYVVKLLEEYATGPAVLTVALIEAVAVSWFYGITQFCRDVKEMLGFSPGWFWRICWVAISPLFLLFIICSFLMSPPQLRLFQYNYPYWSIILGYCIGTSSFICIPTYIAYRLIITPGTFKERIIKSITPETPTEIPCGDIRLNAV

[6] = target: T2, serotonin transporter; details: cited from earlier work
[7] = target: SERT (Homo sapiens, UniProt P31645); details: in vitro specific binding assay; cited from earlier work
SERT, sequence (P31645 whole entry): as above

CN(C)Cc1ccccc1Sc1ccc([123I])cc1N [^123I-ADAM]
radiochemistry purity after 0 hour [1]: 97.78%
affinity with the midbrain versus cerebellum [2]: better than with the cerebellum
affinity with the hypothalamus of the midbrain versus cerebellum [3]: more affinitive than with the cerebellum

CN(C)Cc1ccccc1Sc1ccc([125I])cc1N [^125I-ADAM]
absorption by the brain ([4]; compared with ^125I-IDAM): less than ^125I-IDAM
clarity of the image obtained [5]: clearer
specific binding affinity [5]: much higher than ^125I-IDAM
affinity with the serotonin transporter [6]: much better than that of ^125I-IDAM

CN(C)Cc1ccccc1Sc1ccc([125I])cc1CO [^125I-IDAM]
absorption by a brain ([4]; two minutes after injection): 2.44%
specific binding affinity [5]: 1.75

CN(C)Cc1ccccc1Oc1ccc([125I])cc1CO [^125I-ODAM]
clarity of the image obtained [5]: less clear than with the use of ^125I-IDAM
specific binding affinity with SERT [7]: good
